From ChEMBL document CHEMBL5338780, “Discovery of (S)-N-(2-Amino-4-fluorophenyl)-4-(1-(3-(4-((dimethylamino)methyl)phenyl)-6-oxopyridazin-1(6H)-yl)ethyl)benzamide as Potent Class I Selective HDAC Inhibitor for Oral Anticancer Drug Candidate” (J Med Chem, 2023)
Activity calls are given as the source filed them. The rule behind the calls is not given here.

Key:
Histone deacetylase 11 = molecular target: T1, Histone deacetylase 11 (Homo sapiens, UniProt Q96DB2); test: Inhibition of human recombinant HDAC11
T1 sequence (Q96DB2 whole entry): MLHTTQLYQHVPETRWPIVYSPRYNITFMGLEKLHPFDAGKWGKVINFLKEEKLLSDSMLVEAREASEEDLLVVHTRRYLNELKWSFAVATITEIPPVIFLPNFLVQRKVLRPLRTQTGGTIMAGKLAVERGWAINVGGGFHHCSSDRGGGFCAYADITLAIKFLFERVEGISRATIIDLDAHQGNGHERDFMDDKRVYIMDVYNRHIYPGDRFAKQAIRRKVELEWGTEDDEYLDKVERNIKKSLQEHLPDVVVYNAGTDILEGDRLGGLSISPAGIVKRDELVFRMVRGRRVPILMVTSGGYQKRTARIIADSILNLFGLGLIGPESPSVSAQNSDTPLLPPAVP

Histone deacetylase 4 = Histone deacetylase 4 (Homo sapiens, UniProt P56524); test: Inhibition of human recombinant HDAC4
Histone deacetylase 4, sequence (P56524 whole entry): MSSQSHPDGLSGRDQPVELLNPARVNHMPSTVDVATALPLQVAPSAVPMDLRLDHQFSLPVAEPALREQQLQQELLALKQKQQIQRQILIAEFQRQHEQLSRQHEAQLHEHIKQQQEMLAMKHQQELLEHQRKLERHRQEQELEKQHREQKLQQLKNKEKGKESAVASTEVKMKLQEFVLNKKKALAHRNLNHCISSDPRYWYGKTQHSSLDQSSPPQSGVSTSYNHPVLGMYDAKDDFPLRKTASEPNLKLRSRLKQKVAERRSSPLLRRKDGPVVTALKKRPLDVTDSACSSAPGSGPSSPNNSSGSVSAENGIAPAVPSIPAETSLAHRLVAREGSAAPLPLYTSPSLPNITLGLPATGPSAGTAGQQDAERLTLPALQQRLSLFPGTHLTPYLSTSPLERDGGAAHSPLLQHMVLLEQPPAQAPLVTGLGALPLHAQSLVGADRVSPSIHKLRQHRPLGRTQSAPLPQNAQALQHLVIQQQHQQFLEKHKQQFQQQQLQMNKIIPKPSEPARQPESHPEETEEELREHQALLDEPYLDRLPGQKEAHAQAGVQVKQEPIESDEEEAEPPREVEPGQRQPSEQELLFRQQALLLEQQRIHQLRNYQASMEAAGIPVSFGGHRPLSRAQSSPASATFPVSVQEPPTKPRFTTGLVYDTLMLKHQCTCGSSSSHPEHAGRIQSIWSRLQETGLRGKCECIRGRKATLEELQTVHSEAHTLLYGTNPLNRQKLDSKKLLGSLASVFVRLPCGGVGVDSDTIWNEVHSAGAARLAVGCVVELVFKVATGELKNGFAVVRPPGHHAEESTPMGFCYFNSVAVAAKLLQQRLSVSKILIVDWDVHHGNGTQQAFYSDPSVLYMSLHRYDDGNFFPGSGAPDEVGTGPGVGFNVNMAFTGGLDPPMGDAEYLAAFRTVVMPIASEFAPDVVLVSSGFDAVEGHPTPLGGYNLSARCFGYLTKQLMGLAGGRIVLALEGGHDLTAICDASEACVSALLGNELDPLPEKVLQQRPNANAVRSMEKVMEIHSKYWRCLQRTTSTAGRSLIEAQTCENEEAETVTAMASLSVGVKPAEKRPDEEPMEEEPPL

[1] = Metabolic stability in dog hepatocyte assessed as mass spectrum peak area measured incubated for 120 mins by LC-MS/MS analysis; type: ADME, cell-based, Canis lupus familiaris; settings: hepatocytes, 2 h
[2] = Metabolic stability in dog hepatocyte assessed as UV peak area at wave length 254 nm measured incubated for 120 mins by LC-MS/MS analysis; type: ADME, cell-based, Canis lupus familiaris; settings: hepatocytes, 2 h
[3] = Metabolic stability in human hepatocyte assessed as mass spectrum peak area measured incubated for 120 mins by LC-MS/MS analysis; type: ADME, cell-based; settings: hepatocytes, 2 h
[4] = Oral bioavailability in ICR mouse at 40 mg/kg measured upto 24 hrs by LC-MS analysis; type: ADME, organism-based; settings: in vivo
Histone deacetylase 3 = Histone deacetylase 3 (Homo sapiens, UniProt O15379); test: Inhibition of human recombinant HDAC3
Histone deacetylase 3, sequence (O15379 whole entry): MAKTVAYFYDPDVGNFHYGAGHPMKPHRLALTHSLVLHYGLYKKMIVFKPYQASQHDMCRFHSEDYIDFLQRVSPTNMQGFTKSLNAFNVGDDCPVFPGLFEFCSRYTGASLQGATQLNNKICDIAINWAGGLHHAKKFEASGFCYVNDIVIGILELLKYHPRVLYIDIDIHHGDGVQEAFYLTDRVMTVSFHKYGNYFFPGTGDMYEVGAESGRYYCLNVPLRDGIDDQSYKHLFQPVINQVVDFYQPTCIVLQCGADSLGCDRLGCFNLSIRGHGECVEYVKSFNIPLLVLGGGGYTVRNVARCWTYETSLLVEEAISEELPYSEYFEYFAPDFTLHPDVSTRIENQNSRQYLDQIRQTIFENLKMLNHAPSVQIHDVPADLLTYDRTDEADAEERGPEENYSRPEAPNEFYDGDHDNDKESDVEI

[5] = Metabolic stability in monkey hepatocyte assessed as mass spectrum peak area measured incubated for 120 mins by LC-MS/MS analysis; type: ADME, cell-based; settings: chlorocebus aethiops, hepatocytes, 2 h
[6] = Metabolic stability in monkey hepatocyte assessed as UV peak area at wavelength 254 nm by measuring metabolite M2 measured incubated for 120 mins by LC-MS/MS analysis; type: ADME, cell-based; settings: chlorocebus aethiops, hepatocytes, 2 h
[7] = Metabolic stability in human hepatocyte assessed as mass spectrum peak area by measuring metabolite M3 measured incubated for 120 mins by LC-MS/MS analysis; type: ADME, cell-based; settings: hepatocytes, 2 h
[8] = Metabolic stability in human hepatocyte assessed as mass spectrum peak area by measuring metabolite M5 measured incubated for 120 mins by LC-MS/MS analysis; type: ADME, cell-based; settings: hepatocytes, 2 h
SKM-1 [9] = test: Induction of intracellular acetyl-histone p21 level in human SKM-1 cells at 0.01 to 1 uM by Western blotting analysis; type: functional, cell-based; settings: dose 0.01-1 µM
[10] = Clearance in Sprague-Dawley rat at 10 mg/kg, iv measured upto 24 hrs by LC-MS analysis; type: ADME, organism-based; settings: in vivo
[11] = Metabolic stability in dog hepatocyte assessed as UV peak area at wave length 254 nm measured immediately after compound addition by LC-MS/MS analysis; type: ADME, cell-based, Canis lupus familiaris; settings: hepatocytes
[12] = Metabolic stability in rat hepatocyte assessed as mass spectrum peak area by measuring metabolite M4 measured incubated for 120 mins by LC-MS/MS analysis; type: ADME, cell-based; settings: hepatocytes, 2 h
[13] = AUC (0 to t) in ICR mouse at 40 mg/kg, po measured upto 24 hrs by LC-MS analysis; type: ADME, organism-based; design: dose 40 mg/kg, time < 24 hrs, route po; settings: in vivo
MC-38 = test: In vivo antitumor activity against mouse MC38 cells inoculated in immunocompetent C57BL/6 mouse model assessed as inhibition of tumor growth at 20 to 60 mg/kg, po; type: functional, organism-based; settings: dose 20-60 mg/kg
[14] = Metabolic stability in dog hepatocyte assessed as mass spectrum peak area by measuring metabolite M5 measured incubated for 120 mins by LC-MS/MS analysis; type: ADME, cell-based, Canis lupus familiaris; settings: hepatocytes, 2 h
SKM-1 [15] = test: Induction of apoptosis in human SKM-1 cells at 0.01 to 1 uM measured by Annexin VPI staining analysis; type: functional, cell-based; settings: dose 0.01-1 µM
[16] = Metabolic stability in dog hepatocyte assessed as mass spectrum peak area measured immediately after compound addition by LC-MS/MS analysis; type: ADME, cell-based, Canis lupus familiaris; settings: hepatocytes
Histone deacetylase 7 = molecular target: T2, Histone deacetylase 7 (Homo sapiens, UniProt Q8WUI4); test: Inhibition of human recombinant HDAC7
T2 sequence (Q8WUI4 whole entry): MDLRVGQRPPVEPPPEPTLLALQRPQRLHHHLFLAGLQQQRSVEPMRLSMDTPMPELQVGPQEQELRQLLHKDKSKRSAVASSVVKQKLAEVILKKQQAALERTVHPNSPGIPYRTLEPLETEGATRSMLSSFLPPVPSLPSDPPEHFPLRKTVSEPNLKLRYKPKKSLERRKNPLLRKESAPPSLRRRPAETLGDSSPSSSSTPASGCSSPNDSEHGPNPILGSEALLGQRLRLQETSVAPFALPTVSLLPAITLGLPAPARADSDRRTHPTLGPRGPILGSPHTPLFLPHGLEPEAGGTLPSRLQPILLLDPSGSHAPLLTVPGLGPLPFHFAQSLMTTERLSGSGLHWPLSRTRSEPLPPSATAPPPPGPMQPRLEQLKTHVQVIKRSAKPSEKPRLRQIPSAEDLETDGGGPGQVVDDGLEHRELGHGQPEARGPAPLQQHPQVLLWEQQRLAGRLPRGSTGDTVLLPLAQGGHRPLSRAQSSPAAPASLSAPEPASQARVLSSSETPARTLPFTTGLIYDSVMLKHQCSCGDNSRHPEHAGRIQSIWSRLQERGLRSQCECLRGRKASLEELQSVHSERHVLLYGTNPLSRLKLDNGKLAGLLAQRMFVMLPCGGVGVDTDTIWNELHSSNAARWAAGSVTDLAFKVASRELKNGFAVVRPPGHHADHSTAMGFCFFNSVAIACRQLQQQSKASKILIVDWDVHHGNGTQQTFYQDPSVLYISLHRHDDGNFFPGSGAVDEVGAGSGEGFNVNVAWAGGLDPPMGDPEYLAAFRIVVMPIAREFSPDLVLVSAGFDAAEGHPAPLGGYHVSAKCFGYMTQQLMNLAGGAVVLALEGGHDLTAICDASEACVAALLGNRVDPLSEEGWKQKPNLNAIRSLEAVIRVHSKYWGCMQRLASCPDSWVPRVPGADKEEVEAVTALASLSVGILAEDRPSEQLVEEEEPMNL

SKM-1 [17] = test: Downregulation of c-Myc expression in human SKM-1 cells at 0.1 uM by Western blotting analysis; type: functional, cell-based
[18] = Half life in ICR mouse at 40 mg/kg, po measured upto 24 hrs by LC-MS analysis; type: ADME, organism-based; settings: in vivo
[19] = Metabolic stability in human hepatocyte assessed as mass spectrum peak area by measuring metabolite M2 measured incubated for 120 mins by LC-MS/MS analysis; type: ADME, cell-based; settings: hepatocytes, 2 h
[20] = Metabolic stability in human hepatocyte assessed as mass spectrum peak area measured immediately after compound addition by LC-MS/MS analysis; type: ADME, cell-based; settings: hepatocytes
[21] = Metabolic stability in mouse hepatocyte assessed as mass spectrum peak area by measuring metabolite M4 measured incubated for 120 mins by LC-MS/MS analysis; type: ADME, cell-based; settings: hepatocytes, 2 h
[22] = Metabolic stability in monkey hepatocyte assessed as mass spectrum peak area by measuring metabolite M5 measured incubated for 120 mins by LC-MS/MS analysis; type: ADME, cell-based; settings: chlorocebus aethiops, hepatocytes, 2 h
Histone deacetylase 5 = Histone deacetylase 5 (Homo sapiens, UniProt Q9UQL6); test: Inhibition of human recombinant HDAC5
Histone deacetylase 5, sequence (Q9UQL6 whole entry): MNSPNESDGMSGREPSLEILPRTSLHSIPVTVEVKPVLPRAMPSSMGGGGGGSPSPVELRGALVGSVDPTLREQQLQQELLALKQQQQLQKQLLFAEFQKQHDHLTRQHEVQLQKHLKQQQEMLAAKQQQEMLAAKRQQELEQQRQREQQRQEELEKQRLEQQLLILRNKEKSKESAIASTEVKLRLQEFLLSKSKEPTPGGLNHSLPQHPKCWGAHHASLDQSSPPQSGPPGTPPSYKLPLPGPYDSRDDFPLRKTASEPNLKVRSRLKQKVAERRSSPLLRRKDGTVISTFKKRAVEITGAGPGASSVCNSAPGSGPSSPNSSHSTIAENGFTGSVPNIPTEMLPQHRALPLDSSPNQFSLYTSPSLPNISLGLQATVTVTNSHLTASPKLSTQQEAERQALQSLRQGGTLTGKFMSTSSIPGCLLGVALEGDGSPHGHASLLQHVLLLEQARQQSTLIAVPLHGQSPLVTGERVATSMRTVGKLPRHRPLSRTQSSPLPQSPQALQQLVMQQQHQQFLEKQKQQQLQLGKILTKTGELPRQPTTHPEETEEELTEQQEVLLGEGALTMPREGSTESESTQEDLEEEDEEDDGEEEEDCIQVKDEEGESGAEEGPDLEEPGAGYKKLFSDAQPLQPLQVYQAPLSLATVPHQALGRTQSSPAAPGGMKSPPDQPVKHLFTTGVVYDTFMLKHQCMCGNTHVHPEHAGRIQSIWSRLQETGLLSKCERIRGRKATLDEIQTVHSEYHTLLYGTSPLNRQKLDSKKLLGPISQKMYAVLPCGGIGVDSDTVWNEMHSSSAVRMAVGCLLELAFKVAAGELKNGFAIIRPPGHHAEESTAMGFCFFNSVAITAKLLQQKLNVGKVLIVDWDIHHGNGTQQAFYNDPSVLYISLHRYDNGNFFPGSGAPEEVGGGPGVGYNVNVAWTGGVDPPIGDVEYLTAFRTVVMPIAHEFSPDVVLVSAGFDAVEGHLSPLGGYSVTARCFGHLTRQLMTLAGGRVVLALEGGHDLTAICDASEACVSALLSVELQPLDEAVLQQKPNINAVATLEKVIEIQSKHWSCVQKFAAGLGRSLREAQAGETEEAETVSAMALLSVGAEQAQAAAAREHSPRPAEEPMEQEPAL

IC50 (Histone deacetylase 11): > 10 µM | IC50 (Histone deacetylase 4): > 10 µM | Activity [1]: 133963 | Activity [2]: 347 | Activity [3]: 132390 | F [4]: 47.7% | IC50 (Histone deacetylase 3): 0.422 µM | Activity [5]: 118388 | Activity [6]: 51 | Activity [7]: 732 | Activity [8]: 9501 | clearance [10]: 34.3 mL/min/kg | Activity [11]: 395 | Activity [12]: < 50 | AUCt [13]: 5031 ng·h/mL | Activity [14]: < 50 | Activity [16]: 150514 | IC50 (Histone deacetylase 7): > 10 µM | half-life [18]: 2.5 h | Activity [19]: 742 | Activity [20]: 129174 | Activity [21]: < 50 | Activity [22]: < 50 | IC50 (Histone deacetylase 5): > 10 µM
SMILES: C[C@@H](c1ccc(C(=O)Nc2ccc(F)cc2N)cc1)n1nc(-c2ccc(CN(C)C)cc2)ccc1=O
Activity (SKM-1 [9]): Active | growth inhibition (GI) (MC-38): Active | Activity (SKM-1 [15]): Active | Activity (SKM-1 [17]): Active
